Assay results from patent publication US20260191782A1, “URIDINE TRIACETATE AMORPHOUS FORMULATION AND USES THEREOF” (PHARMA CINQ, LLC, priority 2022, published 2026).

What was measured:
[1] = test system: primary mitochondrial disease; assay: Treatment of primary mitochondrial disease (patient example); assay type: in vivo, human; settings: PMD patient, dose increased to 100 mg/kg/dose twice daily
Description: A patient is diagnosed with primary mitochondrial disease by identification of pathogenic mutations known to impair mitochondrial oxidative phosphorylation (by whole exome sequencing and comparison with a database of known pathogenic genetic variants) combined with symptoms consistent with PMD, in this case including recurrent epileptic seizures, developmental delays, proximal renal tubular acidosis requiring bicarbonate supplementation, and exercise intolerance with early onset of fatigue during exertion. […] Within about one week, seizure frequency declines by more than 50%, and daily bicarbonate requirements to compensate for excessive urinary excretion due to proximal tubular acidosis is reduced from 200 milliEquivalents per day to less than 25. With the therapeutic goal of maintaining plasma bicarbonate above 20 mEq/liter. After several additional weeks, endurance during exercise improves, as measured by timed walking distance and standard clinical measures of subjective fatigue.

[2] = cited from earlier work

CC(=O)OC[C@H]1O[C@@H](n2ccc(=O)[nH]c2=O)[C@H](OC(C)=O)[C@@H]1OC(C)=O [Uridine triacetate, 2′,3′,5′-Tri-O-acetyluridine]
seizure frequency [1]: decreases further | solubility in water [2]: approximately 10 milligrams per milliliter
